Values after ≈ are worked out from the molar mass of the structure shown.

The values below come from publication PMC3994220 (Nanoscale Research Letters, 2014).

A short description of this data set: Paclitaxel plasma solubility (excess drug equilibrated in rodent plasma, HPLC). Type of data set: physicochemical. As to conditions: 37°C, 24 h equilibration. The source says:
where dC/dt is the dissolution rate, D is the solute diffusion coefficient, V is the volume of the dissolution medium, hd is the diffusion boundary thickness, S is the surface area of the solute, Cs is the saturation solubility of the solute, and Ct(t) is the bulk solute concentration. The stability of the crystalline nanosuspension was monitored for a period of 3 weeks for particle size, PXRD, and chemical stability (by HPLC). […] Excess drug was then removed by centrifugation which was followed by protein precipitation, and the concentration was measured by HPLC with an external standard.

Consider `CC(=O)O[C@H]1C(=O)[C@@]2(C)[C@H]([C@H](OC(=O)c3ccccc3)[C@]3(O)C[C@H](OC(=O)[C@H](O)[C@@H](NC(=O)c4ccccc4)c4ccccc4)C(C)=C1C3(C)C)[C@]1(OC(C)=O)CO[C@@H]1C[C@@H]2O` [paclitaxel], for which the concentration in solution (solubility at 24 h) came to 40 µg/mL (≈ 46.8 µM).
